From US12208091B2, “Compounds for treatment of eye diseases associated with excessive vascularisation” (Active Biotech AB, priority 2019, dated 2025)

Legend:
[1] = tested on: Human retinal microvascular endothelial cells (HRMECs); assay: Tube formation assay, combination with aflibercept (contemplated); assay type: cell-based; details: 1 and 10 μM combined with Aflibercept (30 nM)
From the text: Microglia, especially activated microglia play important roles in angiogenesis and maintenance of vascular function haemostasis in the retinal microvasculature (Ding et al 2018). It is contemplated that a co-culture of human retinal microvasculature endothelial cells (HRMEC's) and human microglia from brain can be used to assess the effects of a compound of the disclosure, such as laquinimod, tasquinimod, ABR-215174 or ABR-215691, on neovascularization. A method such as the one outlined below may be used.
This study may be carried out substantially as outlined in Example 3.
Tube formation assay is performed using 24-well plate wells coated with Matrigel or in 96-wells as described Ding et al. 2018 (Ding et al. BMC Ophthalmology (2018) 18:249): A 96-well plate is coated with 50 μL/well Matrigel at 37° C. for 30 min. After co-culturing with microglia for 24 h, HRMECs are seeded on the Matrigel at 1.5×10^4 cells/well in 100 μL medium. After a period of time, for example 4 h, tube formation is observed and photographed with a microscope (Leica Microsystems). Images are analysed using the Angiotool plugin (Zudaire et al., 2011, PLoS one, 6, 11, e27385) for ImageJ (NIH public domain). Total tube area, tube length, density, lacunarity, and branching index (number of junctions and endpoints) are quantified.

[2] = tested on: choroidal neovascularisation; assay: Laser-induced choroidal neovascularisation rat model, fluorescein angiography leakage score; assay type: in vivo, Brown Norway pigmented rats; design: key to Mean score of fluorescein leakage: 0 = no leakage, 1 = slight, 2 = moderate, 3 = strongly stained
Protocol: Forty-eight (48) Brown Norway pigmented rats were divided into six (6) groups of eight (8) animals. Choroidal neovascularization was induced using a 532 nm argon laser photocoagulator (six (6) 75 μm-sized spots at 150 mW for 0.1 sec duration) in the right eyes on Day 0. The test item was administered three times a day by instillation or twice a day by oral administration from Day 0 (DO) just after ChNV induction to Day 21 (last day of the study). Control item (vehicle) was instilled three times a day and the reference item (Dexamethasone in olive oil) was administered by daily oral administration from the Day 0 just after induction of neovascularization to Day 21. Fundus neovessels were evaluated in the right eyes on Days 14 and 21 using Heidelberg's Retinal Angiograph (HRA). Lesion size was determined on choroid flatmounts labelled with Isolectin-B4 at the end of the in vivo period.
On Day 0, animals were anesthetized by an intramuscular injection of a mix of xylazine (5 mg/kg) and ketamine (25 mg/kg). Pupils from the right eyes were dilated by instillation of one drop of 0.5% tropicamide. Then, six (6) choroidal burns (75 μm spot size) were done through a slit-lamp, with a contact lens, around the optic disc, between the main vessel branches using an argon laser photocoagulator (532 nm; 150 mW; 0.1 sec duration). Production of a bubble at the time of laser treatment confirmed the rupture of Bruch's membrane.
Test, control, or reference items were administered topically by instillation (10 μL each) or by oral route (1 mL/kg) from Day 0 (just after the induction) to Day 21 (end of the study). Test and control items were administered three times a day (for instillation) and two times a day (for oral administration). Reference item was administered once a day by oral route.
Fluorescein angiography was performed on Days 14 and 21 using an HRA (Heidelberg's Retinal Angiograph). After anaesthesia (same mix used for ChNV induction) and pupillary dilation, 250 μL/100 g (body weight) of a 10% sodium fluorescein was injected subcutaneously using a 26-G insulin syringe, and fluorescein photos were recorded 10 minutes after dye injection.
The leakage of fluorescein on the angiograms were evaluated by two examiners in a masked fashion and graded as follows: • Score 0, no leakage; • Score 1, slightly stained; • Score 2, moderately stained; • Score 3, strongly stained.
Statistical analysis, using Mann-Whitney U test or appropriate statistical model, were performed on the scoring of lesions visualized by HRA from each animal and on the scoring of the flat mounted preparations.
The grading of fluorescein angiographies (FA) was based on the fluorescence intensity for each lesion. For each treatment group, results were expressed as the group mean score per time-point. Table 1 summarises the evaluation of FA recorded at 10 min on Days 14 and 21 (n=8 animals per group, right eyes). A statistical analysis was performed on the median of the individual intensity scores, using a Kruskall-Wallis test followed by a Mann & Whitney U multiple comparison test, which was used to compare each test, control or reference group.

[3] = Instillations 0.2% 3×/day, Day 14
[4] = Instillations 0.2% 3×/day, Day 21
[5] = Instillations 1% 3×/day, Day 14
[6] = Instillations 1% 3×/day, Day 21
[7] = Instillations 5% 3×/day, Day 14
[8] = Instillations 5% 3×/day, Day 21

## CCN(C(=O)c1c(O)c2c(Cl)cccc2n(C)c1=O)c1ccccc1 [laquinimod]
[1]
  effect on tube formation of combination compared to each compound used as monotherapy: clear additive effect
[2]; [3]
  % of reduction vs respective vehicle: 0%
  Mean score of fluorescein leakage: 0.7
[2]; [4]
  % of reduction vs respective vehicle: 18%
  Mean score of fluorescein leakage: 0.9
[2]; [5]
  % of reduction vs respective vehicle: <0%
  Mean score of fluorescein leakage: 1.1
[2]; [6]
  % of reduction vs respective vehicle: <0%
  Mean score of fluorescein leakage: 1.2
[2]; [7]
  % of reduction vs respective vehicle: 0%
  Mean score of fluorescein leakage: 0.7
[2]; [8]
  % of reduction vs respective vehicle: 63%
  Mean score of fluorescein leakage: 0.4
[2]; Per os 1 mg/kg 2×/day, Day 14
  % of reduction vs respective vehicle: <0%
  Mean score of fluorescein leakage: 0.8
[2]; Per os 1 mg/kg 2×/day, Day 21
  % of reduction vs respective vehicle: 18%
  Mean score of fluorescein leakage: 0.9
[2]; daily topical administration
  vascular leakage: effectively reduces vascular leakage
